From ChEMBL document CHEMBL1156661, “Myrtucommulones F-I, phloroglucinols with thyrotropin-releasing hormone receptor-2 binding affinity from the seeds of Corymbia scabrida” (J Nat Prod, 2008)

test: Displacement of [H3]3-methylhistidylTRH from rat recombinant TRH2 receptor expressed in […] cells; type: cell-based

| SMILES | IC50 |
| --- | --- |
| CC(C)C(=O)c1c(O)c([C@H](C2=C(O)C(C)(C)C(=O)C(C)(C)C2=O)C(C)C)c(O)c([C@H](C2=C(O)C(C)(C)C(=O)C(C)(C)C2=O)C(C)C)c1O [MYRTUCOMMULONE A] | 39 µM |
| CCCCCC(=O)c1c(O)c([C@H](C2=C(O)C(C)(C)C(=O)C(C)(C)C2=O)C(C)C)c(O)c([C@H](C2=C(O)C(C)(C)C(=O)C(C)(C)C2=O)C(C)C)c1O [MYRTUCOMMULONE F] | 16 µM |
| CCCCCC(=O)c1c(O)c2c(c3c1O[C@@]1(O)[C@@H](C(O)C(C)(C)C(=O)C1(C)C)[C@@H]3C(C)C)OC1=C(C(=O)C(C)(C)C(=O)C1(C)C)[C@@H]2CC(C)C (stereo partly specified) [MYRTUCOMMULONE I] | 16 µM |
| CC(C)C(=O)c1c(O)c2c(c3c1O[C@@]1(O)[C@@H](C(O)C(C)(C)C(=O)C1(C)C)[C@@H]3C(C)C)OC1=C(C(=O)C(C)(C)C(=O)C1(C)C)[C@@H]2C(C)C (stereo partly specified) [MYRTUCOMMULONE D] | 11 µM |
| CCCCCC(=O)c1c(O)c([C@@H](CC(C)C)C2=C(O)C(C)(C)C(=O)C(C)(C)C2=O)c(O)c([C@H](C2=C(O)C(C)(C)C(=O)C(C)(C)C2=O)C(C)C)c1O [MYRTUCOMMULONE H] | 31 µM |
| CCCCCC(=O)c1c(O)c2c(c3c1O[C@@]1(O)[C@@H](C(O)C(C)(C)C(=O)C1(C)C)[C@@H]3C(C)C)OC1=C(C(=O)C(C)(C)C(=O)C1(C)C)[C@@H]2C(C)C (stereo partly specified) [MYRTUCOMMULONE G] | 24 µM |
